These results are taken from patent US20260295137A1, “METHOD FOR REMOVING UREMIC TOXINS FROM BLOOD” (INSTITUT NATIONAL DE LA SANTÉ ET DE LA RECHERCHE MÉDICALE, priority 2023, published 2026).

For series [1] the following is noted: background art; cited from earlier work.
A further series can be described thus: In vitro hemolysis assay. Type of series: cell-based, bovine. The conditions noted are these: bovine, blood, 37° C., control 1.5%; for hemolysis at 4 h: MCFA 1-3 mmol/L (exact concentration not stated), median (IQR); for hemolysis at 4 h, 3000 µM: 3 mmol/L. The protocol: (§1) One milliliter of fresh bovine blood was incubated for 4 h at 37° C. with 50 μL of a solution of medium chain fatty acids (final concentration: 0.25, 0.5, 1, 2 or 3 mmol/L) or PBS as control. A positive control of hemolysis (taken as 100% hemolysis) was produced by incubating 1 mL of bovine blood with 0.1% (v/v) of TRITON X100 followed by 2 freeze-thaw cycles. Samples were centrifuged 2 min at 9000×g and plasma was stored at −20° C. until free hemoglobin assay. Hemolysis was estimated by the free hemoglobin concentration. Hemoglobin concentration was determined spectrophotometrically as described by Fairbanks et al (Clin Chem. 1992 January; 38 (1): 132-40). Briefly, plasma samples were diluted to 1:10 in Na2CO3 9.4 mmol/L and absorbance was read at 415 nm, 450 nm and 700 nm on a microplate reader (Tecan, Lyon, France).
(§2) Free hemoglobin concentration was calculated using the following equation: […]
(§3) Wherein: • fHb is the concentration of free hemoglobin in g/L, • A is the absorbance at the specified wavelength, • d is the dilution factor.
(§4) Results were expressed as percent of total hemolysis.
(§5) Fresh bovine blood was incubated for 4 h (the full duration of a typical hemodialysis session) at 37° C. in presence of MCFAs (1-3 mmol/L) and dosage of free hemoglobin in plasma was taken as an index of hemolysis (FIG. 6A-D).

A further series has as its system fresh bovine blood. The series can be described thus: In vitro hemolysis assay. Type of series: cell-based. The following applies: 4 h, 37° C.; for hemolysis compared to control: 1-3 mmol/L. The procedure: as §1, §2, §3, §4, §5
Series [2] deals with T1, human serum albumin (Homo sapiens, UniProt P02768).
T1 construct: purchased Sigma-Aldrich (Saint Quentin Fallavier, France) A9511
Nature of the series: Ultrafiltration competition assay: displacement of p-CS from HSA. Type of series: binding. The following applies: for free fraction of p-CS: displacer 3 mM, median (IQR), baseline 14%. The procedure: (§6) Control experiments were performed by adding the same volume of PBS instead of displacer. Then, 600 μL of samples were transferred in filtration devices (Corning®, Spin-X® UF Concentrator, Wiesbaden, Germany, MWCO: 5 kDa) and were centrifuged at 10,000 g for 5 min and 13,000 g for 15 min at room temperature. Ultrafiltrate was collected and free fraction of IS concentration were assayed fluorometrically as described thereafter.
(§7) Samples were diluted in PBS and fluorescence was measured with a Jasco FP-8300iRM Spectro-fluorometer (Jasco, Tokyo, Japan).
The free fraction of p-CS was measured using ultrafiltration experiments as described as described above.

Series [3] deals with T1, human serum albumin. Nature of the series: Ultrafiltration competition assay: displacement of IS from HSA. Type of series: binding. The following applies: IS 250 μmol/L, HSA 500 μM; for free fraction of IS: displacer 3 mM, pH 7.40, median (IQR), baseline 10.0%; for concentration dependence of increase in free fraction of IS: displacer 1-3 mM. The procedure:
as §6, §7
The free fraction of IS was measured using ultrafiltration experiments as described as described above.

A further series has as its system bovine red blood cells. The series can be described thus: Hemodialysis of fresh bovine blood: hematocrit, hemolysis, plasma protein. The following applies: continuous infusion of octanoate for 2 h.
Series [4] can be described thus: Hemodialysis of fresh bovine blood (closed loop): removal of IS. An excerpt: (§8) To assess the reality of the displacement and the increase of the removal of PBUT during a hemodialysis session, batches of 20 liters of fresh bovine blood were collected from the slaughterhouse under the authorization VC18731 (Oct. 4, 2018) issued from the Direction Départmentale de la Protection des Populations—Direction des Services Vétérinaires (DDPP-DSV, Lyon, France). Blood was heparinized at 3,750 UI/L with Sodium Heparin (Choay, Cheplapharm, France) and filtered on a nylon mesh. Two liters of blood (2 L) were spiked with 200 μmol/L of IS and gently stirred for 2 hours at 37° C. A 2-hour hemodialysis session was performed with Fresenius 5008 CorDiax hemodialysis generator (Fresenius, Sevres, France) and with a polysulfone-based hemodialysis membrane (FXHDF1000, 2.2 m^2, Fresenius Medical Care, Bad Homburg, Germany). Arterial and venous port were disposed in the blood batch to perform a closed loop circuit (see representation of the experimental device on FIG. 1). Blood and dialysate flow rates were set at 200 and 300 mL/min, respectively and dialysate temperature was set at 38° C. […] Blood samples were collected from the arterial lines at 0, 15, 30, 45, 60, 75, 90 and 120 minutes. Blood was centrifuged at 9,000 g for 2 minutes and plasma was stored at −20° C. […] At the beginning and the end of the experiment, hemolysis was estimated through the measurement of free hemoglobin in plasma as described above. Total protein concentration was measured according to the method of Lowry using bovine serum albumin as standard. Hematocrit was measured using a micromethod (Mondal H, Lotfollahzadeh S. Hematocrit. 2023 Jan. 2. In: StatPearls [Internet]. Treasure Island (FL): StatPearls Publishing; 2023). Briefly, 70 μL of blood was collected in a heparinized capillary tube. The end of the capillary tube was sealed with clay sealant and centrifuged at a rate of 9000 rpm for 5 min. The hematocrit level was read using a microhematocrit card reader.
(§9) 5-Hydroxyindole-2-carboxylic acid (5-HICA) was used as an internal standard in all experiments. Plasma samples were centrifugated at 17 000 rpm for 5 minutes. 125 μL of the supernatant was then pretreated using the Ostro Pass-through Sample Preparation Device (Waters, Saint-Quentin-en-Yvelines, France), including an in-well protein precipitation with acetonitrile (375 μL) in combination with a pass-through method that allows a good extraction. Eluants were evaporated to dryness in a gentle stream of nitrogen gas. […] Total PBUT concentrations were determined by a reverse phase HPLC with an isocratic flow at 0.2 ml/min. p-CS and IS were determined by fluorescence analysis (excitation λex: 270 nm; emission λem: 320 nm).

Series [5] can be described thus: Hemodialysis of fresh bovine blood (closed loop): removal of p-CS.
Excerpt: as §8, §9

Series [6] is described as follows: In vivo hemodialysis in anesthetized pigs: removal of IS. The conditions noted are these: octanoate vs saline, 2 h HD; P<0.05.
The subject of another series is pigs. Nature of the series: In vivo hemodialysis in anesthetized pigs: tolerance.
Series [7] is described as follows: In vivo hemodialysis in anesthetized pigs: removal of p-CS. The following applies: octanoate vs saline, 2 h HD; P<0.05.

T1 sequence (P02768 25-609): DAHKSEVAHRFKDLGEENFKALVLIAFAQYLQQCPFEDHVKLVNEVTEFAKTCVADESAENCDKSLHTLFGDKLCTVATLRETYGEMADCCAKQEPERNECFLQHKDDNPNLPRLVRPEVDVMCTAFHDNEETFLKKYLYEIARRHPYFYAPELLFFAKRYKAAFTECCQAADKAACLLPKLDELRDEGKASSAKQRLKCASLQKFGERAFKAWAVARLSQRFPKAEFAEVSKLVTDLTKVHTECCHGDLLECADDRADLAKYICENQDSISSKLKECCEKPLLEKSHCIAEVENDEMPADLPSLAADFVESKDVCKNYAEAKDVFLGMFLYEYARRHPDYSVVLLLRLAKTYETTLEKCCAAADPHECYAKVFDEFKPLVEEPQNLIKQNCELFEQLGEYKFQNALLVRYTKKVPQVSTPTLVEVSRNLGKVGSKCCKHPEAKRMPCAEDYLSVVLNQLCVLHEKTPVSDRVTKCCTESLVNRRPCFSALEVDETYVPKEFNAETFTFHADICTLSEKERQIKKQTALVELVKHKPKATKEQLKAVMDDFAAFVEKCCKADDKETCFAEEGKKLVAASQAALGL

As for `CCCCC/C=C\C/C=C\CCCCCCCC(=O)O` [linoleic acid], in [1], the effect on dyslipidemia result was “exacerbate dyslipidemia”.
As to `CCCCCC(=O)O` [Hexanoate, hexanoic acid], the hemolysis at 4 h in “In vitro hemolysis assay” worked out at 3.6%. The “hemolysis compared to control” value with fresh bovine blood was “did not trigger any significant hemolysis”. Also, at human serum albumin [2], the “free fraction of p-CS” value is 36% (34%-41%). At human serum albumin [2] (highest concentration 3 mM), the “concentration dependence of increase in free fraction of p-CS” value is listed as “only increased the free fraction of p-CS at the highest concentration tested”. At human serum albumin [3], the “free fraction of IS” value is recorded as 36% (34%-39%) and the “concentration dependence of increase in free fraction of IS” value is “only increased the free fraction of IS at the highest concentration tested”.
Turning to `CCCCCCCC(=O)O` [Octanoate, octanoic acid], in the series with bovine red blood cells, the change in hematocrit entry is reported as “did not elicit any significant change in hematocrit” and the “change in hemolysis levels” value is given as “did not elicit any significant change in hematocrit or hemolysis levels”. Moreover, the hemolysis at 4 h in the series “In vitro hemolysis assay” came out at 2.3%. In addition, the “hemolysis compared to control” value in the series with fresh bovine blood is “did not trigger any significant hemolysis”. Besides, in [4] (2 h HD, octanoate infusion, control 36%, p<0.001), the “fractional removal of IS” value amounted to 91%. Further, the “half-life of IS in plasma” value in [4] (octanoate infusion, control 36.4 min) stood at 15.2 min. For the same compound, the “increase of fractional removal of IS” value in series [4] (octanoate vs control, p<0.001) is 2.5 folds. For the same compound, the “toxin removal, IS” value in series [4] (per-dialytic infusion of octanoate, control 1.5 μmol/min) amounted to 3.5 µmol/min. In addition, the “fractional removal of p-CS” value in series [5] (2 h HD, octanoate infusion, control 38%, p<0.001) was 88%. Besides, the “half-life of p-CS in plasma” value in [5] (octanoate infusion, control 20.6 min) turned out to be 12.8 min. For the same compound, in series [5] (octanoate vs control, p<0.001), the “increase of fractional removal of p-CS” value was 2.3 folds. Besides, the “toxin removal, pCS” value in series [5] (per-dialytic infusion of octanoate, control 0.3 μmol/min) came to 1 μmol/min. Further, in series [6], the “increase of dialytic clearance of IS” value is reported as “+113%”. In addition, the hemolysis entry in the series with pigs (hematocrit and free hemoglobin, sodium octanoate i.v. during HD) is given as “no hemolysis”. For the same compound, the tolerance entry with pigs (sodium octanoate 333 mmol/L i.v. at 18 mL/h, 2 h HD) was “Tolerance of all animals was good and no side effect was noticed”. Also, in series [7], the “increase of dialytic clearance of p-CS” value was “+101%”.
As to `CCCCCCCCCCCC(=O)O` [Dodecanoate, dodecanoic acid], the hemolysis at 4 h, 500 µM in “In vitro hemolysis assay” (0.5 mmol/L) was 15.3%. The compound further yielded a hemolysis at 4 h, 3000 µM in the series “In vitro hemolysis assay” of 24.9%. In addition, the concentration triggering hemolysis result in the series with fresh bovine blood (bovine blood) is listed as “higher than 0.25 mmol/L”. Besides, at human serum albumin [3], the “free fraction of IS” value is 42% (41%-44%) and the “concentration dependence of increase in free fraction of IS” value is given as “dose dependently increased the free fraction of IS”.
For `CCCCCCCC/C=C\CCCCCCCC(=O)O` [oleic acid], the effect on dyslipidemia entry in series [1] was “exacerbate dyslipidemia”.
With `CCCCCCCCCC(=O)O` [Decanoate, decanoic acid], the hemolysis at 4 h, 3000 µM in “In vitro hemolysis assay” amounted to 21.9%. Also, the “free fraction of p-CS” value on human serum albumin [2] is listed as 59% (57%-63%). In addition, at human serum albumin [3], the “free fraction of IS” value was 54% (52%-58%).
